Laboratory results as given in US8367639B2, “Hydrogels with covalent and noncovalent crosslinks” (University of Delaware, priority 2005, dated 2013).
Values joined by “and” are separate entries in the source; they are usually repeats but may differ in a detail not shown here. Identical values can stand only once. Like-named read-outs stand apart in the source and are kept apart here. Square brackets hold non-standard residues; d marks the D form. Ends that are not written are not given here. βAla = NCCC(=O)O

Assays:
[1] = Heparin-sepharose affinity chromatography (NaCl elution); assay type: binding; details: 25° C.
Description: (§1) Heparin-sepharose affinity liquid chromatography was performed on an ÄKTA Explorer FPLC equipped with a HiTrap Heparin HP column (5 ml, ˜10 mg heparin/ml gel, Amersham Biosciences Corp, Piscataway, N.J.). Surface Plasmon Resonance (SPR). SPR sensorgrams were recorded on a BiaCore 3000 instrument (Biacore Inc, Piscataway, N.J.), employing a high-capacity LMWH surface created on a commercially available streptavidin-coated chip via treatment with biotinylated LMWH.
For heparin affinity chromatography experiments, HBPs were loaded onto a heparin-sepharose column, and then eluted with buffer of increasing NaCl concentration. The concentration of NaCl required for peptide elution is used as an indication of the affinity of the peptide for heparin. The elution of the peptides from the heparin-sepharose column required a salt concentration of 962±10 mM for the PF4ZIP peptide.

[2] = Surface plasmon resonance on LMWH-modified streptavidin chip; assay type: binding
Description: as §1
In SPR experiments, the interaction of the peptides with a LMWH-modified SA chip surface was determined under conditions described in the experimental section. […] In addition, no mass transport limitation or linked reactions were indicated. […] These faster association kinetics, relative to those reported for the ATIII and HIP (Table 2) (see also N. Yamaguchi, B. S. Chae, L. Zhang, K. L. Kiick, E. M. Furst, Rheological characterization of polysaccharide-poly (ethylene glycol) star copolymer hydrogels, Biomacromolecules 6 (4) (2005) 1931-1940) are the primary cause of the lower measured KD values for PF4ZIP-LMWH binding, and the trend of the dissociation constants is consistent with the chromatography results. […] Nevertheless, the equilibrium constants of dissociation determined via both methods are substantially lower than the concentrations employed during hydrogel formation experiments (see below).
The heparin-binding kinetics between LMWH and PF4ZIP were monitored via SPR at several temperatures between 5° C. and 37° C., to determine potential changes in binding kinetics that might alter hydrogel properties under physiological conditions.

[3] = 25° C.; previously reported studies; cited from earlier work
[4] = NaCl; 25° C.; previously reported studies; cited from earlier work

Substance | Salt required for elution from heparin column [1] [mM] | ka ([2]; 5 ° C.) | kd ([2]; 5 ° C.) | ka ([2]; 15 ° C.) | kd ([2]; 15 ° C.) | Kd ([2]; 25° C.) | ka ([2]; 25° C.) | kd ([2]; 25° C.) | ka ([2]; 25 ° C. (Table 3)) | kd ([2]; 25 ° C. (Table 3)) | ka ([2]; 37 ° C.) | kd ([2]; 37 ° C.) | Kd [3] [µM] | ka [3] | kd [3] | Salt required for elution from heparin column [4] [mM]
CGGRMKQLEDKVKKLLKKNYHLENEVARLKKLVG [PF4ZIP] | 962 ± 10 | 1.56 ± 0.01 × 10^5 M^−1s^−1 | 3.74 ± 0.17 × 10^−3 s^−1 | 1.90 ± 0.04 × 10^5 M^−1s^−1 | 1.67 ± 0.03 × 10^−3 s^−1 | ~0.0115 µM and 0.0115 µM | 2.24±0.05×10^5 M^−1s^−1 | 2.56±0.10×10^−3 s^−1 | 2.24 ± 0.05 × 10^5 M^−1s^−1 | 2.56 ± 0.10 × 10^−3 s^−1 | 5.11 ± 0.02 × 10^5 M^−1s^−1 | 2.44 ± 0.08 × 10^−3 s^−1 |  |  |  | 
CKbAFAKLAARLYRKA (CK[βAla]FAKLAARLYRKA-NH2; N-terminus assumed; SMILES CC(C)C[C@H](NC(=O)[C@H](CCCCN)NC(=O)[C@H](C)NC(=O)[C@H](Cc1ccccc1)NC(=O)CCNC(=O)[C@H](CCCCN)NC(=O)[C@@H](N)CS)C(=O)N[C@@H](C)C(=O)N[C@@H](C)C(=O)N[C@@H](CCCNC(=N)N)C(=O)N[C@@H](CC(C)C)C(=O)N[C@@H](Cc1ccc(O)cc1)C(=O)N[C@@H](CCCNC(=N)N)C(=O)N[C@@H](CCCCN)C(=O)N[C@@H](C)C(N)=O; listed as Homo sapiens) [ATIII] |  |  |  |  |  |  |  |  |  |  |  |  | 12.9 ± 1.3 | 1.56 ± 0.06 × 10^2 M^−1s^−1 | 2.00 ± 0.3 × 10^−3 s^−1 | 594 ± 2
CRPKAKAKAKAKDQTK [HIP] |  |  |  |  |  |  |  |  |  |  |  |  | 4.2 ± 0.3 | 1.10 ± 0.08 × 10^3 M^−1s^−1 | 4.64 ± 0.02 × 10^−3 s^−1 | 687 ± 1
